ChEMBL document CHEMBL3045863, “The direct toxicity of BABA against grapevine ecosystem organisms” (2009)
Activity calls are given as the source filed them. No cut-off for these calls is given here.

Experiments:
Botrytis cinerea [1] = test: Antifungal activity against Botryotinia fuckeliana T4 assessed as inhibition of spore germination after 5 days; type: functional, organism-based
Botrytis cinerea [2] = test: Antifungal activity against Botryotinia fuckeliana T4 assessed as inhibition of mycelial growth after 5 days; type: functional, organism-based
Botrytis cinerea [3] = test: Antifungal activity against Botryotinia fuckeliana T4 assessed as inhibition of mycelial growth 2.4 mM at pH 4 after 5 days; type: functional
Saccharomyces cerevisiae [4] = test: Antifungal activity against Saccharomyces cerevisiae 58W3D4 assessed as reduction of doubling time at 0.001 to 100 mM; type: functional, organism-based
Saccharomyces cerevisiae [5] = test: Antifungal activity against Saccharomyces cerevisiae FL100 ATCC 28383 assessed as reduction of doubling time at > 10 mM; type: functional, organism-based
Botrytis cinerea [6] = test: Antifungal activity against Botryotinia fuckeliana T4 assessed as inhibition of mycelial growth 2.4 mM at pH 7 after 5 days; type: functional
Saccharomyces cerevisiae [7] = test: Antifungal activity against Saccharomyces cerevisiae BW15 assessed as reduction of doubling time at 0.001 to 100 mM; type: functional, organism-based

Q: For `CC(N)CC(=O)O` (racemic), which inhibition (Botrytis cinerea [1]) is on record?
A: Its inhibition is “Dose-dependent effect”.

Q: And the inhibition (Botrytis cinerea [2])?
A: Its inhibition is “Dose-dependent effect”.

Q: What about the “inhibition (INH)” value (Botrytis cinerea [3]) of the same molecule?
A: The value was 100%.

Q: What about the Activity (Saccharomyces cerevisiae [4]) of the same molecule?
A: The Activity was “inactive”.

Q: And the Activity (Saccharomyces cerevisiae [5])?
A: The Activity was “Active”.

Q: What about the “inhibition (INH)” value (Botrytis cinerea [6]) of the same molecule?
A: The value was 40%.

Q: What about the Activity (Saccharomyces cerevisiae [7]) of the same molecule?
A: The Activity was “inactive”.
